Source: patent US11919910B2, “Spiropyrrolidine derived antiviral agents” (ENANTA PHARMACEUTICALS, INC., priority 2021, dated 2024)

Target: SARS-CoV-2 3CL-protease (Severe acute respiratory syndrome coronavirus 2, UniProt P0DTD1)
Test: SARS-CoV-2 3C-like (3CL) protease fluorescence assay (FRET)
Type: biochemical
Settings: recombinant SARS-CoV-2 3CL-protease 10 nM, 30 min preincubation at RT, substrate 40 μM, run in duplicate

SMILES	IC50
CC(C)C[C@@H](C(=O)N1C[C@]2(C[C@H]1C(=O)c1nc3ccccc3s1)C(=O)Nc1ccccc12)N(C)C(=O)c1cc2c(F)cc(F)cc2[nH]1 [Example 1]	< 1 µM
CC(C)C[C@@H](C(=O)N1C[C@]2(C[C@@H]1C(=O)c1nc3ccccc3s1)C(=O)Nc1ccccc12)N(C)C(=O)c1cc2c(F)cc(F)cc2[nH]1 [Example 2]	> 10 µM
CC(C)C[C@@H](C(=O)N1C[C@]2(C[C@H]1C(=O)c1nc3ccccc3s1)C(=O)Nc1ccccc12)N(C)C(=O)c1cc2c(F)cc(F)c(F)c2[nH]1 [Example 3]	> 10 µM
CC(C)C[C@@H](C(=O)N1C[C@]2(C[C@@H]1C(=O)c1nc3ccccc3s1)C(=O)Nc1ccccc12)N(C)C(=O)c1cc2c(F)cc(F)c(F)c2[nH]1 [Example 4]	> 10 µM
CC(C)C[C@@H](C(=O)N1C[C@]2(C[C@H]1C(=O)c1nc3ccccc3s1)C(=O)Nc1ccccc12)N(C)C(=O)OCc1ccccc1 [Example 5]	> 10 µM
CC(C)C[C@@H](C(=O)N1C[C@]2(C[C@H]1C(=O)c1nc3ccccc3s1)C(=O)Nc1ccccc12)N(C)C(=O)[C@H](C)NC(=O)OCc1ccccc1 [Example 6]	< 1 µM

Test system: not given
Test: not given
Type: physicochemical
Settings: not given
Procedure: Step 7: Compound (3-6) (80 mg, 0.167 mmol) and 4,6,7-trifluoro-1H-indole-2-carboxylic acid (36.0 mg, 0.167 mmol) were dissolved in CH2Cl2 (1.393 ml) and DMF (0.279 ml) at 0° C. 4-methylmorpholine (55.1 μl, 0.501 mmol) and HATU (66.7 mg, 0.176 mmol) were added. The mixture was stirred at 0° C. for 3 h, diluted with DCM, and washed with 5% NaHCO3. The organic layer was washed with brine, dried over Na2SO4, and concentrated in vacuo. The crude was purified by chromatography on silica gel (ISCO 4 g) using ethyl acetate/cyclohexane (0-60%) to give a product as a light yellow oil (3-7) (60 mg, 53%). LC-MS, ES−: 674.2 [M-1]. Step 8: To a solution of (3-7) (60 mg, 0.089 mmol) in DCM (2 ml) at 0° C. was added Dess-Martin periodinane (56.5 mg, 0.133 mmol). The mixture was stirred at 0° C. for 3 h, quenched with 10% Na2S2O3, stirred for another 15 min, and extracted with DCM. The combined organic layers were washed with 10% Na2S2O3, Sat. NaHCO3, brine, dried over Na2SO4, and concentrated.

SMILES	stability in solution
CC(C)C[C@@H](C(=O)N1C[C@]2(C[C@H]1C(=O)c1nc3ccccc3s1)C(=O)Nc1ccccc12)N(C)C(=O)c1cc2c(F)cc(F)c(F)c2[nH]1 [Example 3]	not stable in solution
